The molecules below were run on KIT phosphorylation in M-07e cells (assay: Cell-based KIT phosphorylation in M-07e cells by pKIT ELISA). Details: SCF stimulation.
Parameters: species or system human
How it was run: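 Serum-starved M-07e cells (1 × 10^6/mL, overnight) were treated with compounds (8-point 3-fold series from 1 uM) for 2 h at 37 °C, then stimulated with 100 ng/mL SCF for 5 min. Lysate phospho-KIT was captured on anti-phospho-CD117 plates, detected with anti-pY-HRP, and read at 450 nm against a pc-KIT standard curve.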

Row | Compound | IC50
1 | CCCS(=O)(=O)N1CC(c2nc(-c3ccc(Cl)c(NC(=O)c4cnc5ccccn45)c3)no2)C1 [Compound I-220] | 50 to 500 nM
2 | COC(=O)N1CC(c2nc(-c3ccc(C(F)F)c(NC(=O)c4cnc5ccccn45)c3)no2)C1 [Compound I-225] | ≤ 50 nM
3 | Cc1ccc(-c2noc([C@H](C)O)n2)cc1NC(=O)c1cnc2ccccn12 [Compound I-271] | ≤ 50 nM
4 | COC(=O)N1CC(c2nc(-c3ccc(C)c(NC(=O)c4cnn5ccc(Br)cc45)c3)no2)C1 [Compound I-280] | ≤ 50 nM
5 | Cc1ccc(-c2noc([C@H]3C[C@@H]3F)n2)cc1NC(=O)c1cnc2ccc(F)cn12 [Compound I-288] | 50 to 500 nM
6 | Cc1ccc(-c2noc(CCO)n2)cc1NC(=O)c1cnc2ccccn12 [Compound I-306] | ≤ 50 nM
7 | Cc1ccc(-c2noc(CC(C)(C)O)n2)cc1NC(=O)c1cnc2ccccn12 [Compound I-336] | ≤ 50 nM
8 | COC(=O)N1CC(c2nc(-c3ccc(Cl)c(NC(=O)c4cnc5ccccn45)c3)no2)C1 [Compound I-339] | ≤ 50 nM
9 | O=C(Nc1cc(-c2noc([C@H]3C[C@@H]3F)n2)ccc1Cl)c1cnc2ccccn12 [Compound I-341] | 50 to 500 nM
10 | Cc1ccc(-c2noc([C@H]3CC(F)(F)CN3)n2)cc1NC(=O)c1cnc2ccccn12 [Compound I-359] | 50 to 500 nM
11 | Cc1nc(-c2ccc(C)c(NC(=O)c3cnc4ccccn34)c2)no1 [Compound I-360] | ≤ 50 nM
12 | Cc1ccc(-c2noc(C3CC(F)C3)n2)cc1NC(=O)c1cnc2ccccn12 (stereo not drawn) [Compound I-381] | ≤ 50 nM
13 | Cc1ccc(-c2noc(C3CC(C)(F)C3)n2)cc1NC(=O)c1cnc2ccccn12 (stereo not drawn) [Compound I-387] | ≤ 50 nM

These molecules were tested on Caco-2 cells (assay: Caco-2 permeability assay). Details: Caco-2.
Assay type: in vitro ADME
Experimental: Exemplary compounds were tested for cell permeability in Caco-2, MDCKII-MDR1 and MDCKII-BCRP cell lines with efflux transporter engagement inferred from the efflux ratios determined. Procedures and results are described below. […] This feature of certain compounds is in part due to efflux transporter engagement. See, for instance, exemplary such compounds included in data tables below.
The transport buffer in the study was HBSS with 10.0 mM HEPES at pH 7.40±0.05. Test compound was tested at 2.00 μM bi-directionally in duplicate. Digoxin was tested at 10.0 μM bi-directionally in duplicate, while nadolol and metoprolol were tested at 2.00 μM in A to B direction in duplicate. Final DMSO concentration was adjusted to less than 1%. The plate was incubated for 2 hours in CO2 incubator at 37±1° C., with 5% CO2 at saturated humidity without shaking. And all samples after mixed with acetonitrile containing internal standard were centrifuged at 3200×g for 10 min. For nadolol and metoprolol, 200 μL supernatant solution was diluted with 600 μL ultra-pure water for LC-MS/MS analysis. For digoxin and test compounds, 200 μL supernatant solution was diluted with 200 μL ultra-pure water for LC-MS/MS analysis. Concentrations of test and control compounds in starting solution, donor solution, and receiver solution were quantified by LC-MS/MS methodologies, using peak area ratio of analyte/internal standard.
After transport assay, lucifer yellow rejection assay was applied to determine the Caco-2 cell monolayer integrity.
[…] And permeation of lucifer yellow through the monolayer was measured to evaluate the cellular integrity.
The apparent permeability coefficient Papp (cm/s) was calculated using the equation: Papp=(dCr/dt)×Vr/(A×C0), where dCr/dt is the cumulative concentration of compound in the receiver chamber as a function of time (μM/s); Vr is the solution volume in the receiver chamber (0.075 mL on the apical side, 0.25 mL on the basolateral side); A is the surface area for the transport, i.e. 0.0804 cm^2 for the area of the monolayer; C0 is the initial concentration in the donor chamber (μM).
The efflux ratio was calculated using the equation: Efflux Ratio=Papp (BA)/Papp(AB).
Percent recovery was calculated using the equation: % Solution Recovery=100×[(Vr×Cr)+(Vd×Cd)]/(Vd×C0), where Vd is the volume in the donor chambers (0.075 mL on the apical side, 0.25 mL on the basolateral side); Cd and Cr are the final concentrations of transport compound in donor and receiver chambers, respectively.

Row | Compound | Caco-2: Efflux Ratio
14 | CCCS(=O)(=O)N1CC(c2nc(-c3ccc(Cl)c(NC(=O)c4cnc5ccccn45)c3)no2)C1 [Compound I-220] | 0.25
15 | COC(=O)N1CC(c2nc(-c3ccc(C(F)F)c(NC(=O)c4cnc5ccccn45)c3)no2)C1 [Compound I-225] | 1.37
16 | Cc1ccc(-c2noc([C@H](C)O)n2)cc1NC(=O)c1cnc2ccccn12 [Compound I-271] | 2.93
17 | COC(=O)N1CC(c2nc(-c3ccc(C)c(NC(=O)c4cnn5ccc(Br)cc45)c3)no2)C1 [Compound I-280] | 0.86
18 | Cc1ccc(-c2noc([C@H]3C[C@@H]3F)n2)cc1NC(=O)c1cnc2ccc(F)cn12 [Compound I-288] | 0.56
19 | Cc1ccc(-c2noc(CCO)n2)cc1NC(=O)c1cnc2ccccn12 [Compound I-306] | 3.66
20 | Cc1ccc(-c2noc(CC(C)(C)O)n2)cc1NC(=O)c1cnc2ccccn12 [Compound I-336] | 2.62
21 | COC(=O)N1CC(c2nc(-c3ccc(Cl)c(NC(=O)c4cnc5ccccn45)c3)no2)C1 [Compound I-339] | 0.56
22 | O=C(Nc1cc(-c2noc([C@H]3C[C@@H]3F)n2)ccc1Cl)c1cnc2ccccn12 [Compound I-341] | 0.56
23 | Cc1ccc(-c2noc([C@H]3CC(F)(F)CN3)n2)cc1NC(=O)c1cnc2ccccn12 [Compound I-359] | 1.19
24 | Cc1nc(-c2ccc(C)c(NC(=O)c3cnc4ccccn34)c2)no1 [Compound I-360] | 0.36
25 | Cc1ccc(-c2noc(C3CC(F)C3)n2)cc1NC(=O)c1cnc2ccccn12 (stereo not drawn) [Compound I-381] | 0.97
26 | Cc1ccc(-c2noc(C3CC(C)(F)C3)n2)cc1NC(=O)c1cnc2ccccn12 (stereo not drawn) [Compound I-387] | 0.77

Same assay, conditions: Caco-2, apical to basolateral

Row | Compound | Caco-2: Papp A-B
27 | CCCS(=O)(=O)N1CC(c2nc(-c3ccc(Cl)c(NC(=O)c4cnc5ccccn45)c3)no2)C1 [Compound I-220] | 16.5 10^−6 cm/s
28 | COC(=O)N1CC(c2nc(-c3ccc(C(F)F)c(NC(=O)c4cnc5ccccn45)c3)no2)C1 [Compound I-225] | 9.62 10^−6 cm/s
29 | Cc1ccc(-c2noc([C@H](C)O)n2)cc1NC(=O)c1cnc2ccccn12 [Compound I-271] | 6.26 10^−6 cm/s
30 | COC(=O)N1CC(c2nc(-c3ccc(C)c(NC(=O)c4cnn5ccc(Br)cc45)c3)no2)C1 [Compound I-280] | 14 10^−6 cm/s
31 | Cc1ccc(-c2noc([C@H]3C[C@@H]3F)n2)cc1NC(=O)c1cnc2ccc(F)cn12 [Compound I-288] | 17.4 10^−6 cm/s
32 | Cc1ccc(-c2noc(CCO)n2)cc1NC(=O)c1cnc2ccccn12 [Compound I-306] | 7.03 10^−6 cm/s
33 | Cc1ccc(-c2noc(CC(C)(C)O)n2)cc1NC(=O)c1cnc2ccccn12 [Compound I-336] | 9.39 10^−6 cm/s
34 | COC(=O)N1CC(c2nc(-c3ccc(Cl)c(NC(=O)c4cnc5ccccn45)c3)no2)C1 [Compound I-339] | 22.2 10^−6 cm/s
35 | O=C(Nc1cc(-c2noc([C@H]3C[C@@H]3F)n2)ccc1Cl)c1cnc2ccccn12 [Compound I-341] | 16.2 10^−6 cm/s
36 | Cc1ccc(-c2noc([C@H]3CC(F)(F)CN3)n2)cc1NC(=O)c1cnc2ccccn12 [Compound I-359] | 9.88 10^−6 cm/s
37 | Cc1nc(-c2ccc(C)c(NC(=O)c3cnc4ccccn34)c2)no1 [Compound I-360] | 12.7 10^−6 cm/s
38 | Cc1ccc(-c2noc(C3CC(F)C3)n2)cc1NC(=O)c1cnc2ccccn12 (stereo not drawn) [Compound I-381] | 17.1 10^−6 cm/s
39 | Cc1ccc(-c2noc(C3CC(C)(F)C3)n2)cc1NC(=O)c1cnc2ccccn12 (stereo not drawn) [Compound I-387] | 14.5 10^−6 cm/s
